{"source": "paper PMC8496086", "about": "(RSC Chemical Biology, 2021)", "key": {"[1]": {"system": "A549 lung carcinoma cells", "assay": "MNA production in A549 cells", "type": "cell-based, human", "settings": "1 and 10 μM compound, 100 μM nicotinamide, 10 μM SAM, 1 h"}, "[2]": {"system": "human aortic endothelial cells (HAEC)", "assay": "MNA production in HAEC cells", "type": "cell-based", "settings": "1 and 10 μM compound, 100 μM nicotinamide, 10 μM SAM, 3 hours"}, "[3]": {"system": "NNMT", "settings": "read-out: reported IC50 value; cited from earlier work"}}, "data": [{"smiles": "CNc1ccc(C(N)=O)cn1", "note": "[Peptide 6-MANA, 6-methylamino-nicotinamide]", "values": [{"measurement": "effect on concentration of MNA", "setting": "[1]", "value": "significant reduction of MNA concentration"}, {"measurement": "effect on concentration of MNA", "setting": "[2]", "value": "significant reduction of MNA concentration"}, {"measurement": "IC50", "setting": "[3]", "value": "0.588 ± 0.075", "unit": "µM"}]}]}
